Experiments:
TRKA G595R = target: T1, TRKA G595R (Homo sapiens, UniProt P04629, G595R); test: In vitro HTRF kinase assay, recombinant TRKA G595R; type: biochemical
T1 construct: purchased SignalChem Biotech Inc (Richmond, BC, Canada)
Method: (§1) Recombinant kinases were purchased from SignalChem Biotech Inc (Richmond, BC, Canada). In vitro kinase assays were performed following the optimization of the HTRF Kinase Assay (Cisbio). […] ATP concentrations ranged from 1 to 10 µM based on internal optimization.

Bcan-Ntrk1 Trka G598R = test: Proliferation and clonogenic assays, mouse glioma cell line; type: cell-based
Source text: (§2) NTRK fusion-positive colorectal cancer cell lines IRC, Kor1, and KM12 were utilized. The IRC and the KM12 cell lines were obtained from Dr. Bardelli and cultured according to the described protocols. The Kor1 cell line was obtained from Lee et al. and cultured on laminin pre-treated plates in RPMI media supplemented with 10% Fetal Bovine Serum (FBS). All cell lines were authenticated by STR and periodically screened for the presence of mycoplasma. For the mutant models, two human-derived colorectal cancer cell lines (IRC) and two mouse-derived glioma models (NLS) were used. […] Sequencing of the double mutant cell line was performed using MSK-IMPACT [25]. IRC primary cell lines were cultured with DMEM/F12 50:50 Mix (Corning) supplemented with 10% FBS. NLS Bcan-Ntrk1 Trka G598R and Bcan-Ntrk1 Trka G670C single mutants as well as double mutants NLS Bcan-Ntrk1 Trka G598R/G670A and NLS Bcan-Ntrk1 Trka G598R/G670C isogenic models were established using CRISPR/Cas9 to knock-in TRKA solvent-front and xDFG mutations into tumor cells derived from a Bcan-Ntrk1-driven glioma mouse model. Trka G598R is the mouse ortholog to human TRKA G595R while Trka G670A and Trka G670C are the mouse ortholog to human TRKA G667A and TRKA G667C, respectively. Mouse p53 ^−/^− Bcan-Ntrk1 glioma cells were plated on laminin-coated plates and cultured with Neurocult Stem Cell Basal Media with Proliferation Supplements (Stem Cell Technologies). Ba/F3 cell lines stably expressing WT and mutant versions (i.e. G595R, G667C/A, V573M, F589L, F633L, F617L, G623R/E, G639R, G696A/C, G709C, V608D/M) of human TRKA, TRKB or TRKC were generated using either lentiviral transduction or standard transfection methods by a contract research organization (Kyinno, Beijing, China).
(§3) CellTiter-Glo Cell Viability Assays (Promega) and crystal violet clonogenic assays were performed on primary NTRK fusion-positive colorectal cancer cell lines, mouse Ba/F3 cell lines and isogenic mouse glioma cell lines. For the CellTiter-Glo assays, three biological replicates were performed, with each condition being assayed in triplicate determinations. Cells were seeded in a 96-well plate in the afternoon at optimal density. […] Plates were removed from the incubator 72 h later and CellTiter-Glo reagent was added. Absorbance was read at 490 nm in accordance with Promega’s protocol. Data is presented as a survival percentage on the y-axis (mean ± STDEV) normalized to the control DMSO-treated cells deemed 100% viable. Drug concentrations on the x-axis are represented as a base 10 logarithm (LOG). For the crystal violet assays, cells were seeded in a 24-well plate at optimal densities in the afternoon. […]

[1] = test system: Bcan-Ntrk1 Trka G598R/G670A; test: as above; type: cell-based
Source text: as §2, §3

[2] = test system: IRC LMNA-NTRK1 TRKA G595R; test: Proliferation, clonogenic and western blot assays, primary IRC cell line with TRKA G595R; type: cell-based; conditions: primary human NTRK fusion-positive cell line with TRKA G595R
Source text: NTRK fusion-positive colorectal cancer cell lines IRC, Kor1, and KM12 were utilized. The IRC and the KM12 cell lines were obtained from Dr. Bardelli and cultured according to the described protocols. The Kor1 cell line was obtained from Lee et al. and cultured on laminin pre-treated plates in RPMI media supplemented with 10% Fetal Bovine Serum (FBS). All cell lines were authenticated by STR and periodically screened for the presence of mycoplasma. For the mutant models, two human-derived colorectal cancer cell lines (IRC) and two mouse-derived glioma models (NLS) were used. […] Sequencing of the double mutant cell line was performed using MSK-IMPACT [25]. IRC primary cell lines were cultured with DMEM/F12 50:50 Mix (Corning) supplemented with 10% FBS. NLS Bcan-Ntrk1 Trka G598R and Bcan-Ntrk1 Trka G670C single mutants as well as double mutants NLS Bcan-Ntrk1 Trka G598R/G670A and NLS Bcan-Ntrk1 Trka G598R/G670C isogenic models were established using CRISPR/Cas9 to knock-in TRKA solvent-front and xDFG mutations into tumor cells derived from a Bcan-Ntrk1-driven glioma mouse model. […]
(§4) CellTiter-Glo Cell Viability Assays (Promega) and crystal violet clonogenic assays were performed on primary NTRK fusion-positive colorectal cancer cell lines, mouse Ba/F3 cell lines and isogenic mouse glioma cell lines. […] Absorbance was read at 490 nm in accordance with Promega’s protocol. […]

TRKA G667C = target: T2, TRKA G667C (Homo sapiens, UniProt P04629, G667C); test: In vitro HTRF kinase assay, recombinant TRKA G667C; type: biochemical; conditions: compared to TRKA G595R
T2 construct: purchased SignalChem Biotech Inc (Richmond, BC, Canada)
Method: as §1

[3] = test system: Bcan-Ntrk1 Trka G598R orthotopic gliomas; test: Intracranial efficacy, orthotopic mouse glioma model; type: in vivo, Athymic female mice; conditions: selitrectinib 30 mg/kg BID, repotrectinib and zurletrectinib 15 mg/kg BID
Method: (§5) In vivo brain orthotopic experiments were carried out at Memorial Sloan Kettering Cancer Center (MSKCC). Two mouse Bcan-Ntrk1 glioma models were used: single solvent front mutant Trka G598R (clone 1) and double xDFG mutant Trka G598R/G670A (clone 3). For each model, five arms were used with six mice per arm, totaling 60 mice. Athymic female mice (6–8 weeks old) were anesthetized with ketamine/xylazine and administered a preoperative dose of buprenorphine prior to stereotactic intracranial injection. Each mouse was injected with 200,000 cells in a volume of 2 uL 3 mm deep, 1 mm to the right of the sagittal suture (midline), and 1 mm posterior to the coronal suture behind the bregma with the aim being to target the right lateral ventricle. One week post cell implantation, the mice were randomized into different treatment groups and treatments began. […] Mouse weights were monitored twice a week and survival was recorded and graphed on GraphPad Prism 9 [31, 32].
(§6) Statistical analyses were conducted using GraphPad Prism 9 (GraphPad Software Inc.). For CellTiter-Glo assays, raw data obtained were normalized to the DMSO control utilizing Microsoft Excel. GraphPad Prism 9 was used to determine the 50% growth inhibition concentration (IC50) using non-linear regression and curve fitting. Data is presented as the mean ± standard deviation (STDEV) of all replicates. Measurements were assessed for normal distribution and homogeneity of variance using appropriate tests and were analyzed using analysis of variance or T-Tests, and nonparametric tests were used for non-normal distributed data. Animal studies utilized five arms with six or eight mice per arm. A Kaplan–Meier test was used to assess lifespan characteristics and for comparison between groups. Median survivals were obtained using GraphPad Prism 9. Sample size was based on statistical power analysis to ensure sufficient capability to detect a pre-specified effect size. We assumed a moderate effect size, with an alpha level set at 0.05, and a power (1-β) set at 0.80. P values were calculated using a Log-rank or Mantel–Cox test using GraphPad Prism 9. A P value < 0.05 was considered statistically significant.

[4] = test system: Bcan-Ntrk1 Trka G598R/G670A orthotopic gliomas; test: as above; type: in vivo, Athymic female mice; conditions: selitrectinib 30 mg/kg BID, repotrectinib and zurletrectinib 15 mg/kg BID
Method: as §5, §6

[5] = test system: IRC LMNA-NTRK1 TRKA G595R/G667C; test: Proliferation, clonogenic and western blot assays, IRC cell line with TRKA G595R/G667C; type: cell-based; conditions: human NTRK fusion-positive cell line with TRKA G595R/G667C compound mutation
Source text: as §2, §4

T1 sequence (P04629 33-796 G595R): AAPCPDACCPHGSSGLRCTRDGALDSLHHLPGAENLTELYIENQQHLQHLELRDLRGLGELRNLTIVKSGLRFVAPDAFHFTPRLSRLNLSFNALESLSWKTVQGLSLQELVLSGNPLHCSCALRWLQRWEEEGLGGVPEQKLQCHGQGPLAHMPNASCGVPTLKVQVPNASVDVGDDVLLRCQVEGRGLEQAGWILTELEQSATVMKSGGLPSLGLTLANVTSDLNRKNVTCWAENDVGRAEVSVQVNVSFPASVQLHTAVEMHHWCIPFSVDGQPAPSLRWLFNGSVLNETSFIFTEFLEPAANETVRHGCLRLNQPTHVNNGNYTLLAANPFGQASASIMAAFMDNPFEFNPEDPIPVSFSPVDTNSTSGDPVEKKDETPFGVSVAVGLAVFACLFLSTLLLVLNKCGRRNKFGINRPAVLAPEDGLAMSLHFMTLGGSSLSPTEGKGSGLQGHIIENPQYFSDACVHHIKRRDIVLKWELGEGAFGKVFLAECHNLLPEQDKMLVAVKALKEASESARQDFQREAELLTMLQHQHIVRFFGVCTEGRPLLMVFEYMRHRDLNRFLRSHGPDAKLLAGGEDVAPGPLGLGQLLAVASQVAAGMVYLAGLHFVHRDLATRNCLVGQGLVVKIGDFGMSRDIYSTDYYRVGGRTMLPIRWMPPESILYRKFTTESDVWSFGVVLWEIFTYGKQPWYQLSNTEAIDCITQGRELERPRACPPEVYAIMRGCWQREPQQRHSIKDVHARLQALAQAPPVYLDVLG
T2 sequence (P04629 33-796 G667C): as the sequence (P04629 33-796 G595R) above, with R563G, G635C counted along it

Row | Compound | Activity against TRKA G595R recombinant kinase (TRKA G595R) | Activity against mouse glioma cell line (Bcan-Ntrk1 Trka G598R) | Activity against mouse glioma cell line [1] | Inhibition of growth and TRKA-mediated signaling [2] | Potency against TRKA G667C xDFG mutant recombinant kinase (TRKA G667C) | Survival of mice, comparison between next-generation agents [3] | Median survival [4] [days] | Inhibition of growth and TRKA-mediated signaling [5]
1 | C[C@@H]1CCc2ncc(F)cc2[C@H]2CCCN2c2ccn3ncc(c3n2)C(=O)N1 [Selitrectinib, selitrectinib] | active in the low nanomolar range | highly active | highly active | able to inhibit the growth and TRKA-mediated signaling | potency was significantly reduced | no significant difference in the survival | 41.5 | not with the TRKA G595R/G667C compound mutation
2 | zurletrectinib | active in the low nanomolar range | highly active | highly active | able to inhibit the growth and TRKA-mediated signaling | potency was significantly reduced | no significant difference in the survival | 104 | not with the TRKA G595R/G667C compound mutation

Reference: publication PMC11300601, “Zurletrectinib is a next-generation TRK inhibitor with strong intracranial activity against NTRK fusion-positive tumours with on-target resistance to first-generation agents” (British Journal of Cancer, 2024)
